In ChEMBL document CHEMBL1156251, “Structure--activity relationships of polymyxin antibiotics” (J Med Chem, 2010):
Values after ≈ are worked out from the molar mass of the structure shown. *1 amine or outer side, *2 acyl side, *3 side chain or, on linkers, in order; H or OH if unused. Where a SMILES comes first, the peptide text is derived from it. Bridges are numbered along the chain shown (N, C = ends). [ ]: non-standard residue; d: D form. The star is where a group is joined. X1 = NC(=O)[C@@H](CS[*:2])C(=O)[*:1]; X2 = CC[C@H](C)[C@H](NO*)C(=O)O; Octanoyl = CCCCCCCC(=O)*; Dab = NCC[C@H](N)C(=O)O

Legend:
[1] = test system: Lipopolysaccharide (LPS); assay: Displacement of dansyl-PMB from LPS by isothermal titration calorimetry
[2] = test system: Salmonella enterica; assay: Antimicrobial activity against Salmonella enterica; format: functional
[3] = test system: Pseudomonas aeruginosa; assay: Antimicrobial activity against Pseudomonas aeruginosa; format: functional, organism-based
[4] = test system: Escherichia coli; assay: Antimicrobial activity against Escherichia coli; format: functional

| Compound | Ka [1] | MIC [2] | MIC [3] | MIC [4] |
| --- | --- | --- | --- | --- |
| CC[C@H](C)[C@H](N)C(=O)N[C@@H](CCCCN)C(=O)N[C@H](C(=O)N[C@@H](CCCCN)C(=O)N[C@@H](CCCCN)C(=O)N[C@@H](Cc1ccccc1)C(=O)N[C@@H](CC(C)C)C(=O)N[C@@H](CCCCN)C(=O)N[C@@H](CCCCN)C(=O)N[C@H](C(=O)O)[C@@H](C)O)[C@@H](C)O (H-IKTKKFLKKT-OH) | 0.2 10^5/M | – | – | – |
| CC(C)C[C@@H]1NC(=O)[C@H](Cc2ccccc2)NC(=O)[C@H](CCCCN)NC(=O)[C@@H](C(N)=O)CSSC[C@@H](C(N)=O)NC(=O)[C@H](CCCCN)NC(=O)[C@H](CCCCN)NC1=O (KFLKKC-NH2; linker N-6 via X1) | 1.15 10^5/M | > 1000 µg/mL | – | – |
| CC(C)C[C@@H]1NC(=O)[C@H](Cc2ccccc2)NC(=O)[C@H](CCCCN)NC(=O)[C@@H](C(N)=O)CSSC[C@@H](C(=O)N[C@@H](CCCCN)C(=O)N[C@H](C(=O)NCC(=O)N[C@@H](CCCCN)C(=O)O)[C@@H](C)O)NC(=O)[C@H](CCCCN)NC(=O)[C@H](CCCCN)NC1=O (KFLKKCKTGK-OH; linker N-6 via X1) | 0.56 10^7/M | > 1000 µg/mL | – | – |
| CC[C@H](C)[C@H](NOC(=O)[C@H](CCCCN)NC(=O)CNC(=O)[C@@H](NC(=O)[C@H](CCCCN)NC(=O)[C@@H]1CSSC[C@H](C(N)=O)C(=O)N[C@@H](CCCCN)C(=O)N[C@@H](Cc2ccccc2)C(=O)N[C@@H](CC(C)C)C(=O)N[C@@H](CCCCN)C(=O)N[C@@H](CCCCN)C(=O)N1)[C@@H](C)O)C(=O)O (KFLKKCKTGK-X2; linker N-6 via X1) | 0.29 10^7/M | > 1000 µg/mL | – | – |
| CCCCCCCC(=O)N[C@@H](CCN)C(=O)N[C@H](C(=O)N[C@@H](C)C(=O)N[C@H]1CCNC(=O)[C@H]([C@@H](C)O)NC(=O)[C@H](CCN)NC(=O)[C@H](CCN)NC(=O)[C@H](CC(C)C)NC(=O)[C@@H](Cc2ccccc2)NC(=O)[C@H](CCN)NC1=O)[C@@H](C)O (Octanoyl-[Dab]TA[Dab][Dab][dF]L[Dab][Dab]T; lactam 4-C) | – | 1 µM | 2 µM (≈ 2.32 µg/mL) | 1 µM (≈ 1.16 µg/mL) |
| CC(C)C[C@@H]1NC(=O)[C@@H](Cc2ccccc2)NC(=O)[C@H](CCN)NC(=O)[C@@H](NC(=O)[C@H](CCN)NC(=O)[C@@H](NC(=O)[C@H](CCN)NC(=O)CC23CC4CC(CC(C4)C2)C3)[C@@H](C)O)CCNC(=O)[C@H]([C@@H](C)O)NC(=O)[C@H](CCN)NC(=O)[C@H](CCN)NC1=O [1-ADAMANTANEACETIC ACID POLYMIXIN B] | – | 0.5 µM | 1 µM (≈ 1.24 µg/mL) | 1 µM (≈ 1.24 µg/mL) |
| CC(C)C[C@@H]1NC(=O)[C@@H](Cc2ccccc2)NC(=O)[C@H](CCN)NC(=O)[C@@H](NC(=O)[C@H](CCN)NC(=O)[C@@H](NC(=O)[C@H](CCN)NC(=O)c2ccc3ccccc3c2)[C@@H](C)O)CCNC(=O)[C@H]([C@@H](C)O)NC(=O)[C@H](CCN)NC(=O)[C@H](CCN)NC1=O [2-ANTHRACENE CARBOXYLIC ACID POLYMIXIN B] | – | 2 µM | 2 µM (≈ 2.43 µg/mL) | 4 µM (≈ 4.87 µg/mL) |
| CC(C)C[C@@H]1NC(=O)[C@@H](Cc2ccccc2)NC(=O)[C@H](CCN)NC(=O)[C@@H](NC(=O)[C@H](CCN)NC(=O)[C@@H](NC(=O)[C@H](CCN)NC(=O)Cc2ccc(-c3ccccc3)cc2)[C@@H](C)O)CCNC(=O)[C@H]([C@@H](C)O)NC(=O)[C@H](CCN)NC(=O)[C@H](CCN)NC1=O [4-BIPHENYL ACETIC ACID POLYMIXIN B] | – | 1 µM | 1 µM (≈ 1.26 µg/mL) | 0.5 µM (≈ 0.629 µg/mL) |
| CC(C)C[C@@H]1NC(=O)[C@@H](Cc2ccccc2)NC(=O)[C@H](CCN)NC(=O)[C@@H](NC(=O)[C@H](CCN)NC(=O)[C@@H](NC(=O)[C@H](CCN)NC(=O)C2CCCCCCCCCCC2)[C@@H](C)O)CCNC(=O)[C@H]([C@@H](C)O)NC(=O)[C@H](CCN)NC(=O)[C@H](CCN)NC1=O [CYCLODEDECANE CARBOXYLIC ACID POLYMIXIN B] | – | 2 µM | 2 µM (≈ 2.52 µg/mL) | 2 µM (≈ 2.52 µg/mL) |
| CC(C)C[C@@H]1NC(=O)[C@@H](CC(C)C)NC(=O)[C@H](CCN)NC(=O)[C@@H](NC(=O)[C@H](CCN)NC(=O)[C@@H](NC(=O)[C@H](CCN)NC(=O)C2CCCCCCCCCCC2)[C@@H](C)O)CCNC(=O)[C@H]([C@@H](C)O)NC(=O)[C@H](CCN)NC(=O)[C@H](CCN)NC1=O [CYCLODODECANE CARBOXYLIC ACID COLISTIN] | – | 2 µM | 2 µM (≈ 2.45 µg/mL) | 4 µM (≈ 4.89 µg/mL) |
| CC(C)C[C@@H]1NC(=O)[C@@H](CC(C)C)NC(=O)[C@H](CCN)NC(=O)[C@@H](NC(=O)[C@H](CCN)NC(=O)[C@@H](NC(=O)[C@H](CCN)NC(=O)C(c2ccccc2)C2CCCC2)[C@@H](C)O)CCNC(=O)[C@H]([C@@H](C)O)NC(=O)[C@H](CCN)NC(=O)[C@H](CCN)NC1=O (some centres undefined) [CYCLOPENTYLPHENYL ACETIC ACID COLISTIN] | – | 16 µM | 2 µM (≈ 2.43 µg/mL) | 16 µM (≈ 19.4 µg/mL) |
| CC(C)C[C@@H]1NC(=O)[C@@H](Cc2ccccc2)NC(=O)[C@H](CCN)NC(=O)[C@@H](NC(=O)[C@H](CCN)NC(=O)[C@@H](NC(=O)[C@H](CCN)NC(=O)C(c2ccccc2)C2CCCC2)[C@@H](C)O)CCNC(=O)[C@H]([C@@H](C)O)NC(=O)[C@H](CCN)NC(=O)[C@H](CCN)NC1=O (some centres undefined) [CYCLOPENTYLPHENYL ACETIC ACID POLYMIXIN B] | – | 8 µM | 2 µM (≈ 2.5 µg/mL) | 8 µM (≈ 10 µg/mL) |
| CCCCCCCC(=O)N[C@H](C(=O)N[C@@H](CCN)C(=O)N[C@H]1CCNC(=O)[C@H]([C@@H](C)O)NC(=O)[C@H](CCN)NC(=O)[C@H](CCN)NC(=O)[C@H](CC(C)C)NC(=O)[C@@H](CC(C)C)NC(=O)[C@H](CCN)NC1=O)[C@@H](C)O [Octanoyl colistin nonapeptide] | – | 4 µM | 2 µM (≈ 2.11 µg/mL) | 1 µM (≈ 1.06 µg/mL) |
